Results taken from PubChem BioAssay AID1054 (Sanford-Burnham Center for Chemical Genomics, 2008).
Several values for one entry are separate records, joined by “and”; a condition that tells them apart may be missing. Identical values can stand only once. Activity calls are given as the source filed them. How the calls were made is not given here.

target: Dual specificity protein phosphatase 6 (Rattus norvegicus) (UniProt Q64346); assay: DUSP6 phosphatase inhibition, redox-sensitive – biochemical, rat enzyme, secondary assay (AID 1054); settings: recombinant MKP-3 phosphatase activity, redox-state secondary assay
Sequence (Q64346 whole entry, looked up): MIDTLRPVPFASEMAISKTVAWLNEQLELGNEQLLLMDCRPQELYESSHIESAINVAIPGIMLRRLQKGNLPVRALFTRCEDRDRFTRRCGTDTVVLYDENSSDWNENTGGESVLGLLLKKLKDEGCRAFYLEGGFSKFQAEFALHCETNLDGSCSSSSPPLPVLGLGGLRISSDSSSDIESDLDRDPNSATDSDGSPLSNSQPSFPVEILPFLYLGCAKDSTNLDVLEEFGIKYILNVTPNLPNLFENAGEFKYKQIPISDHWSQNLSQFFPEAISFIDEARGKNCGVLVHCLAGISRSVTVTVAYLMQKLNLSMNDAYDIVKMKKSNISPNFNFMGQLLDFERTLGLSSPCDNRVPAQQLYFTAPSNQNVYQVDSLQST

| Compound | IC50 |
| --- | --- |
| O=C(O)C1Nc2ccc([N+](=O)[O-])cc2C2C=CCC12 (configuration not stated) | 47.5 µM |
| COc1cc(C(=S)NCc2ccc(O)cc2)ccc1O | 16.1 µM |
| O=C(O)C1Nc2c(O)cc(Cl)c([N+](=O)[O-])c2C2C=CCC12 (configuration not stated) | 35.4 µM |
| NC(=O)[C@H](Cc1ccccc1)n1c(=O)n(Cc2ccc(Br)cc2)c(=O)n(-c2ccccc2)c1=O | > 100 µM (inactive) |
| CCCCOC(=O)c1ccc2c(c1)C1C=CCC1C(C(=O)O)N2 (configuration not stated) | 4.02 µM |
| O=C(O)C1Nc2ccccc2C2C=CCC12 (configuration not stated) | 25.2 µM |
| COC(=O)c1ccccc1OC(=O)c1ccc2c(c1)C1C=CCC1C(C(=O)O)N2 (configuration not stated) | 17.2 µM |
| CC(=O)Nc1ccc2c(c1)C1C=CCC1C(C(=O)O)N2 (configuration not stated) | > 100 µM (inactive) |
| COc1ccc(-n2c(=O)nc(NCCc3cccc(Cl)c3)[nH]c2=O)cc1 | > 100 µM (inactive) |
| Cn1c(=O)n(-c2ccccc2)c(=O)n([C@@H](Cc2ccccc2)C(N)=O)c1=O | > 100 µM (inactive) |
| COc1cc(C(=S)NC(C)(C)C)ccc1O | > 100 µM (inactive) |
| O=c1/c(=C/c2ccc(-c3cc(Cl)cc(Cl)c3)o2)sc2nc3cc(Br)cnc3n12 | 14.8 µM |
| O=C(O)[C@H](O)c1ccccc1 | > 100 µM (inactive) |
| O=C(O)C1Nc2c(F)cccc2C2C=CCC12 (configuration not stated) | 17.2 µM |
| COc1cc(C(=S)N2CCCCC2)ccc1O | 13.5 µM and 10.7 µM |
| NC(=O)c1cccc2c1NC(C(=O)O)C1CC=CC21 (configuration not stated) | 55.5 µM |
| Cc1ccccc1Cn1c(=O)n(-c2ccccc2)c(=O)n([C@H](C(=O)O)C(C)C)c1=O | > 100 µM (inactive) |
| CSc1nnc(-c2ccco2)c(-c2ccco2)n1 | 99.7 µM |
| COc1cc(C(=S)N2CCCC2)ccc1O | > 100 µM (inactive) |
| O=C(O)C1Nc2c(cccc2C(F)(F)F)C2C=CCC12 (configuration not stated) | 7.72 µM |
| O=C(O)c1ccccc1-c1ccc(/C=c2\sc3nc4cc(Br)cnc4n3c2=O)o1 | 3.11 µM |
| COc1cc(C(=S)NCc2ccc(C)cc2C)ccc1O | 2.12 µM |
| CCn1c(SCC(=O)O)nc2sc3c(c2c1=O)CCCC3 | > 100 µM (inactive) |

| Compound | IC50 |
| --- | --- |
| COc1cc(C(=S)N2CCC(C)CC2)ccc1O | 32.8 µM |
| CCOC(=O)c1ccccc1OC(=O)c1ccc2c(c1)C1C=CCC1C(C(=O)O)N2 (configuration not stated) | 6.01 µM |
| O=C(O)[C@@H](O)c1ccccc1 | > 100 µM (inactive) |
| O=C(Oc1ccc(-c2ccccc2)cc1)c1cccc2c1NC(C(=O)O)C1CC=CC21 (configuration not stated) | 3.5 µM |
| COc1cc(C(=S)NC2CCCC2)ccc1O | 3.77 µM |
| COc1cc(C(=S)NCc2ccc(F)c(C(F)(F)F)c2)ccc1O | 1.5 µM |
| CCCCCc1nnc(NC(=O)Cc2cccs2)s1 | 17.2 µM |
| Cc1cc(C)c2nc3s/c(=C\c4ccc(-c5ccccc5C(=O)O)o4)c(=O)n3c2c1 | 11.7 µM |
| O=C(O)c1ccc([N+](=O)[O-])c2c1NC(C(=O)O)C1CC=CC21 (configuration not stated) | > 100 µM (inactive) |
| NC(=O)[C@H](Cc1ccccc1)n1c(=O)[nH]c(=O)n(-c2ccc(Cl)cc2)c1=O | > 100 µM (inactive) |
| Clc1cccc(Cl)c1COc1nnc(-c2cccs2)c(-c2cccs2)n1 | > 100 µM (inactive) |
| CCN(CC)C(=S)c1ccc(O)c(OC)c1 | 86.6 µM |
| Cc1cc2nc3s/c(=C/c4ccc(-c5ccccc5C(=O)O)o4)c(=O)n3c2cc1C | 14.8 µM |
| O=c1nc(NCCc2ccccc2)[nH]c(=O)n1-c1ccccc1 | > 100 µM (inactive) |
| Cc1cc(NC(=O)Cc2cccs2)no1 | 13.1 µM |
| O=C1c2ccccc2CC1Sc1nnc(-c2ccco2)c(-c2ccco2)n1 (configuration not stated) | 42 µM |
| Cc1cc(O)c2c(c1)C1C=CCC1C(C(=O)O)N2 (configuration not stated) | > 100 µM (inactive) |
| O=C(O)c1ccc(-c2ccc(/C=c3\sc4nc5ccccc5n4c3=O)o2)cc1 | 6.59 µM |
| COc1cccc2c1NC(C(=O)O)C1CC=CC21 (configuration not stated) | 23.1 µM and 13.1 µM |
| Cc1ccc2c(c1)NC(C(=O)O)NS2(=O)=O (configuration not stated) | 56.9 µM |
| O=C(O)C1Nc2c(Cl)cc(Cl)c(Cl)c2C2C=CCC12 (configuration not stated) | 12 µM |
| O=C(O)C1Nc2c(I)cccc2C2C=CCC12 (configuration not stated) | > 100 µM (inactive) |
| CCn1c(=O)n(C)c(=O)n([C@@H](Cc2ccccc2)C(N)=O)c1=O | > 100 µM (inactive) |

| Compound | IC50 |
| --- | --- |
| CC(C)CNc1nc(=O)n(-c2ccc(F)cc2)c(=O)[nH]1 | > 100 µM (inactive) |
| Cc1cc(C)c2c(c1)NC(C(=O)O)C1CC=CC21 (configuration not stated) | 46.1 µM |
| COc1cc(C(=S)NCc2ccc(F)c(C)c2)ccc1O | 7.53 µM |
| C#CCCCCCCCCCCCCCCCCCC | > 100 µM (inactive) |
| Cc1ccc(C)c2c1NC(C(=O)O)C1CC=CC21 (configuration not stated) | > 100 µM (inactive) |
| COc1cc(C(=S)NCc2ccccc2)ccc1O | 4.46 µM |
| Cc1ccc2c(c1Cl)NC(C(=O)O)C1CC(Sc3ccccc3[N+](=O)[O-])C(Cl)C21 (configuration not stated) | 42.6 µM |
| CCCCCCCCCCCCCCCCCCC#CCCCCCCCCCCC(=O)O | > 100 µM (inactive) |
| O=C(O)c1ccc2c(c1)C1C=CCC1C(C(=O)O)N2 (configuration not stated) | 15.5 µM |
| O=C(O)C1Nc2cc(Cl)cc(Cl)c2C2C=CCC12 (configuration not stated) | > 100 µM (inactive) |
| CCCCCCCCCCCCCCCCCCC#CCCCCCCCCCCCC(=O)O | > 100 µM (inactive) |
| CCCn1c(=O)nc(NCCc2ccccc2)[nH]c1=O | > 100 µM (inactive) |
| O=C(O)C(O)c1ccccc1 (configuration not stated) | > 100 µM (inactive) |
| O=C(O)C1Nc2c(Cl)cc(Cl)cc2C2C=CCC12 (configuration not stated) | 53 µM |
| CCOC(=O)C1Nc2c(O)ccc(C)c2C2C=CCC12 (configuration not stated) | > 100 µM (inactive) |
| O=C(O)C1Nc2cc(C(F)(F)F)ccc2S(=O)(=O)N1 (configuration not stated) | > 100 µM (inactive) |
| O=c1/c(=C/c2cccc(Br)c2)sc2nc3cc(Br)cnc3n12 | > 100 µM (inactive) |
| Cc1cc(NC(=O)CCc2ccc(C)o2)no1 | > 100 µM (inactive) |
| CCn1c(=O)n(Cc2ccccc2C)c(=O)n([C@@H](Cc2ccccc2)C(=O)O)c1=O | > 100 µM (inactive) |
| CCC(CC)NC(=S)c1ccc(O)c(OC)c1 | 4.16 µM |
| CCCn1c(=O)nc(NCc2ccc(C)cc2)[nH]c1=O | > 100 µM (inactive) |
| Cc1cc(C)c2c(c1)C1C=CCC1C(C(=O)O)N2 (configuration not stated) | > 100 µM (inactive) |
| Cc1ccc(-n2c(=O)[nH]c(=O)n([C@H](C(N)=O)C(C)C)c2=O)cc1 | > 100 µM (inactive) |

| Compound | IC50 |
| --- | --- |
| O=C1CC(=O)N(Cc2ccco2)C(=O)N1 | > 100 µM (inactive) |
| COCCCNc1nc(=O)n(-c2ccc(C)cc2)c(=O)[nH]1 | > 100 µM (inactive) |
| CCCCCC#CCC#CCC#CCC#CCCCC(=O)O | 30.4 µM |
| CCCCCCn1c(=O)nc(NCc2ccccc2OC)[nH]c1=O | > 100 µM (inactive) |
| CC(C)COC(=O)c1ccc2c(c1)C1C=CCC1C(C(=O)O)N2 (configuration not stated) | 55.8 µM |
| COc1ccc(N2Cc3cccc(C(=O)O)c3C2=O)cc1 | > 100 µM (inactive) |
| C[C@@H](C(N)=O)n1c(=O)n(Cc2ccccc2)c(=O)n(-c2ccccc2)c1=O | > 100 µM (inactive) |
| Cn1c(=O)n(CC(N)=O)c(=O)n(-c2ccccc2)c1=O | > 100 µM (inactive) |
| O=C(Oc1ccc2ccccc2c1)c1ccc2c(c1)C1C=CCC1C(C(=O)O)N2 (configuration not stated) | 24.7 µM |
| O=C(O)C1Nc2c(cccc2N2CCOCC2)C2C=CCC12 (configuration not stated) | 60.1 µM |
| Cn1c(=O)n(-c2ccc(Cl)cc2)c(=O)n([C@@H](Cc2ccccc2)C(N)=O)c1=O | > 100 µM (inactive) |
| CCOC(=O)C1Nc2c(OC)cccc2C2OCCC12 (configuration not stated) | > 100 µM (inactive) |
| CCC(CC)c1nnc(NC(=O)Cc2cccs2)s1 | > 100 µM (inactive) |
| Cc1ccc(CC(=O)Nc2cc(C)on2)cc1 | > 100 µM (inactive) |
| Cc1cc(I)cc2c1NC(C(=O)O)C1CC=CC21 (configuration not stated) | > 100 µM (inactive) |
| CCn1c(=O)n(Cc2ccc(N(O)O)cc2)c(=O)n([C@@H](Cc2ccccc2)C(=O)O)c1=O | > 100 µM (inactive) |
| Clc1ccccc1CSc1nnc(-c2ccco2)c(-c2ccco2)n1 | 24.2 µM |
| CCOC(=O)C1=C(c2ccccc2)N=c2sc(=Cc3cc(OC)c(OC)c(OC)c3)c(=O)n2C1c1cccs1 (configuration not stated) | > 50 µM (inactive) |
| CCn1c(=O)n(CC)c(=O)n([C@@H](Cc2ccccc2)C(=O)O)c1=O | > 100 µM (inactive) |
| Cc1cc(NC(=O)/C=C/c2cccs2)no1 | > 100 µM (inactive) |
| c1ccc(CSc2nnc(-c3ccco3)c(-c3ccco3)n2)cc1 | 24.2 µM |
| Cc1ccccc1Cn1c(=O)n(-c2ccccc2)c(=O)n([C@@H](C)C(N)=O)c1=O | > 100 µM (inactive) |
| Cc1ccc2c(c1)C1C=CCC1C(C(=O)O)N2 (configuration not stated) | 7.92 µM |

| Compound | IC50 |
| --- | --- |
| O=C(O)C1Nc2c(O)cccc2C2C=CCC12 (configuration not stated) | 10.5 µM and 14.6 µM |
| CCOC(=O)C1=C(C)N=c2s/c(=C/c3cc(Cl)c(OCC(=O)O)c(OC)c3)c(=O)n2C1c1ccccc1Cl (configuration not stated) | 9.75 µM |
| Cc1cc(NC(=O)c2cccs2)no1 | > 100 µM (inactive) |
| O=C(O)c1ccc(N2C(=O)c3ccccc3C2=O)cc1 | > 100 µM (inactive) |
| Cc1ccc(O)c2c1C1C=CCC1C(C(=O)O)N2 (configuration not stated) | 86.4 µM |
| NS(=O)(=O)c1ccc2c(c1)C1C=CCC1C(C(=O)O)N2 (configuration not stated) | > 100 µM (inactive) |
| CCCCCCCCC#CC#CCCCC(=O)O | > 100 µM (inactive) |
| CCOc1cc2c(c([N+](=O)[O-])c1)NC(C(=O)O)C1CC=CC21 (configuration not stated) | > 100 µM (inactive) |
| O=C(O)C1Nc2ccc(Br)cc2C2C=CCC12 (configuration not stated) | 12.3 µM |
| CCOC(=O)C1=C(C)N=c2sc(=Cc3ccc(OCC(=O)O)cc3)c(=O)n2C1c1ccc(SC)cc1 (configuration not stated) | 9.08 µM |
| CCCCCCCCCCCCCCCCCCC=CCCCCCC(=O)O | > 100 µM (inactive) |
| Cc1cc2ccccn2c1C(=O)C(=O)O | > 100 µM (inactive) |
| CCOC(=O)C1Nc2c(O)cc(C)cc2C2C=CCC12 (configuration not stated) | > 100 µM (inactive) |
| O=c1/c(=C/c2ccc(-c3ccccc3[N+](=O)[O-])o2)sc2nc3cc(Br)cnc3n12 | 29.8 µM |
| Cc1ccc2c(c1C)NC(C(=O)O)C1CC=CC21 (configuration not stated) | 5.96 µM |
| Cc1ccc2c(nc3s/c(=C\c4ccc(-c5ccccc5C(=O)O)o4)c(=O)n32)c1C | 21.6 µM |
| CCCn1c(=O)nc(NCc2ccccc2OC)[nH]c1=O | > 100 µM (inactive) |
| CCN1CCN(C(=S)c2ccc(O)c(OC)c2)CC1 | > 100 µM (inactive) |
| Cn1c(SCC(=O)O)nc2sc3c(c2c1=O)CCC3 | > 100 µM (inactive) |
| O=c1/c(=C/c2ccccc2Cl)sc2nc3cc(Br)cnc3n12 | 2.5 µM |
